Test results as given in BindingDB's records for doi:10.7270/Q2TB1590 (Nmmlsc, 2007).
pIC50: −log10 of the molar value.

Molecular target: T1, fMet-Leu-Phe receptor (Homo sapiens, UniProt P21462)
T1 sequence (P21462 whole entry): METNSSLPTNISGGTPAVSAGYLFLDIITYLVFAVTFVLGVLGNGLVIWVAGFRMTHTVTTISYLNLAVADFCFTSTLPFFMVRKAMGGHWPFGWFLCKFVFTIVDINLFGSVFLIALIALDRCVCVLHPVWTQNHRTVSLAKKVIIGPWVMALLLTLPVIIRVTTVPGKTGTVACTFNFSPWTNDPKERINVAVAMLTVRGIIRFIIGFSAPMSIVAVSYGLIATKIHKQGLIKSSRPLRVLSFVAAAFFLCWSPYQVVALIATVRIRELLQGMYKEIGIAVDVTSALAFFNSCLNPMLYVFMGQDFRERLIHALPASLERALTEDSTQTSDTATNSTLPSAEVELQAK
Test: FPR1 fluorescent ligand binding inhibitors, dose response, cell-based, flow cytometry, Ki from IC50 (AID 724)

SMILES	pIC50
CC(=O)C1C(=O)C(=O)N(CCc2c(C)[nH]c3ccccc23)C1c1cccc(F)c1 (stereo not given)	4.76
COc1ccc(OC)c(C2C(C(=O)c3ccccc3)C(=O)C(=O)N2c2ccc(C)c(Cl)c2)c1 (stereo not given) [(4E)-1-(3-chloranyl-4-methyl-phenyl)-5-(2,5-dimethoxyphenyl)-4-[oxidanyl(phenyl)methylidene]pyrrolidine-2,3-dione]	4.59
COc1ccc(C2C(C(=O)c3ccccc3)C(=O)C(=O)N2c2cccc(Cl)c2)c(OC)c1 (stereo not given) [(4E)-1-(3-chlorophenyl)-5-(2,4-dimethoxyphenyl)-4-[hydroxy(phenyl)methylene]pyrrolidine-2,3-quinone]	4.32
COCCCN1C(=O)C(=O)C(C(=O)c2ccccc2)C1c1ccc(C(C)C)cc1 (stereo not given) [(4E)-1-(3-methoxypropyl)-4-[oxidanyl(phenyl)methylidene]-5-(4-propan-2-ylphenyl)pyrrolidine-2,3-dione]	4.51
CC(C)c1ccc(C2C(C(=O)c3ccccc3)C(=O)C(=O)N2Cc2cccnc2)cc1 (stereo not given) [(4E)-4-[hydroxy(phenyl)methylene]-5-p-cumenyl-1-(3-pyridylmethyl)pyrrolidine-2,3-quinone]	4.29
COc1ccc(C2C(C(=O)c3ccc(C)cc3)C(=O)C(=O)N2Cc2cccnc2)c(OC)c1 (stereo not given) [(4E)-5-(2,4-dimethoxyphenyl)-4-[(4-methylphenyl)-oxidanyl-methylidene]-1-(pyridin-3-ylmethyl)pyrrolidine-2,3-dione]	4.22
COCCCN1C(=O)C(=O)C(C(=O)c2ccccc2)C1c1ccc(O)c(OC)c1 (stereo not given) [(4E)-5-(3-methoxy-4-oxidanyl-phenyl)-1-(3-methoxypropyl)-4-[oxidanyl(phenyl)methylidene]pyrrolidine-2,3-dione]	4.30

Compounds with a higher pIC50, results first:

pIC50	SMILES
5.15	COc1ccc(C2C(C(=O)c3cccs3)C(=O)C(=O)N2CCCn2ccnc2)cc1 (stereo not given) [1-(3-imidazol-1-ylpropyl)-2-(4-methoxyphenyl)-4-oxidanyl-3-thiophen-2-ylcarbonyl-2H-pyrrol-5-one]
5.36	COc1ccc(C2C(C(=O)c3cccs3)C(=O)C(=O)N2CCN2CCOCC2)c(OC)c1 (stereo not given) [2-(2,4-dimethoxyphenyl)-1-(2-morpholin-4-ylethyl)-4-oxidanyl-3-thiophen-2-ylcarbonyl-2H-pyrrol-5-one]
4.97	O=C1C(=O)N(CCc2ccccc2)C(c2ccc(Cl)cc2)C1C(=O)c1cccs1 (stereo not given) [2-(4-chlorophenyl)-4-hydroxy-1-(2-phenylethyl)-3-(thiophene-2-carbonyl)-2H-pyrrol-5-one]
5.01	COc1ccc(C2C(C(=O)c3ccco3)C(=O)C(=O)N2CCN2CCOCC2)c(OC)c1 (stereo not given) [5-(2,4-dimethoxyphenyl)-4-(furan-2-carbonyl)-3-hydroxy-1-(2-morpholinoethyl)-1H-pyrrol-2(5H)-one]
5.28	COc1ccc(C2C(C(=O)c3ccccc3)C(=O)C(=O)N2CCCn2ccnc2)c(OC)c1 (stereo not given) [(4E)-5-(2,4-dimethoxyphenyl)-1-(3-imidazol-1-ylpropyl)-4-[oxidanyl(phenyl)methylidene]pyrrolidine-2,3-dione]
5.55	COCCN1C(=O)C(=O)C(C(=O)c2ccccc2)C1c1cc(OC)ccc1OC (stereo not given) [(4E)-5-(2,5-dimethoxyphenyl)-1-(2-methoxyethyl)-4-[oxidanyl(phenyl)methylidene]pyrrolidine-2,3-dione]
5.04	COc1ccc(OC)c(C2C(C(=O)c3ccccc3)C(=O)C(=O)N2c2cccnc2)c1 (stereo not given) [(4E)-5-(2,5-dimethoxyphenyl)-4-[hydroxy(phenyl)methylene]-1-(3-pyridyl)pyrrolidine-2,3-quinone]
5.14	CCCCCCN1C(=O)C(=O)C(C(=O)c2ccccc2)C1c1ccc(O)c(OC)c1 (stereo not given) [(4Z)-1-hexyl-5-(3-methoxy-4-oxidanyl-phenyl)-4-[oxidanyl(phenyl)methylidene]pyrrolidine-2,3-dione]
